Data reported in paper PMC8286840, “Identifying SARS-CoV-2 antiviral compounds by screening for small molecule inhibitors of Nsp3 papain-like protease” (Biochemical Journal, 2021).
Structures can show the parent of a compound that is named as a salt. Where two headings read alike, the source gives them in different places. Where a SMILES comes first, the peptide text is derived from it. [ ]: non-standard residue; d: D form. Dolaproine = CO[C@@H]([C@@H]1CCCN1)[C@@H](C)C(=O)O; Dil = CC[C@H](C)[C@H](NC)[C@@H](CC(=O)O)OC; NMeV = CN[C@H](C(=O)O)C(C)C

Assays:
[1] = molecular target: T1, SARS-CoV-2 PLpro (nsp3 1564–1878) (Severe acute respiratory syndrome coronavirus 2, UniProt P0DTD1); test: biochemical; parameters: FRET-quenched peptide (Pro3) cleavage by PLpro, 10 min pre-incubation, slope over 20 min, normalised to no-compound control; conditions: read-out: % of control remaining
[2] = molecular target: T1, SARS-CoV-2 PLpro (nsp3 1564–1878); test: biochemical; parameters: FRET-quenched peptide (Pro3) cleavage by PLpro, 10 min pre-incubation, slope over 20 min, normalised to no-compound control; conditions: read-out: % of control remaining; remark: listed apart in the source

Structure (SMILES): CC[C@H](C)[C@@H]([C@@H](CC(=O)N1CCC[C@H]1[C@H](OC)[C@@H](C)C(=O)N[C@@H](Cc1ccccc1)C(=O)OC)OC)N(C)C(=O)[C@@H](NC(=O)[C@@H](NC)C(C)C)C(C)C [MMAF-OMe] (H-[NMeV]V[Dil][Dolaproine]F-OMe)
- remaining activity at 1.25 µM ([1]; Well no.=7600, low concentration screen): 101%
- remaining activity at 3.75 µM ([2]; Well no.=7600, high concentration screen): 97.1%

Structure (SMILES): O/N=C/c1cc[n+](C[n+]2ccc(/C=N/O)cc2)cc1 [MMB-4]
- remaining activity at 1.25 µM [1]: 95.4%
- remaining activity at 3.75 µM [2]: 93.7%

Structure (SMILES): S=C(NCc1ccc2c(c1)OCO2)N1CCN(c2ncnc3c2oc2ccccc23)CC1 [MP-470]
- remaining activity at 1.25 µM ([1]; Well no.=2745, low concentration screen): 103%
- remaining activity at 3.75 µM ([2]; Well no.=2745, high concentration screen): 104%

Structure (SMILES): Cc1cccc(C#Cc2ccccc2)n1 [MPEP (Hydrochloride)]
- remaining activity at 1.25 µM ([1]; Well no.=8541, low concentration screen): 96.2%
- remaining activity at 3.75 µM ([2]; Well no.=8541, high concentration screen): 90.4%

Structure (SMILES): CC(C)N(CCCCOCC(=O)O)c1cnc(-c2ccccc2)c(-c2ccccc2)n1 [MRE-269]
- remaining activity at 1.25 µM ([1]; Well no.=7719, low concentration screen): 107%
- remaining activity at 3.75 µM ([2]; Well no.=7719, high concentration screen): 105%

Structure (SMILES): CCCOC(=O)c1c(-c2ccccc2)nc(CC)c(C(=O)SCC)c1CCC [MRS 1523]
- remaining activity at 1.25 µM ([1]; Well no.=1064, low concentration screen): 95.3%
- remaining activity at 3.75 µM ([2]; Well no.=1064, high concentration screen): 94.2%

Structure (SMILES): CCCn1c(=O)c2[nH]c(-c3ccc(OCC(=O)Nc4ccc(C#N)cc4)cc3)nc2n(CCC)c1=O [MRS 1754]
- remaining activity at 1.25 µM ([1]; Well no.=788, low concentration screen): 97.4%
- remaining activity at 1.25 µM ([1]; Well no.=8407, low concentration screen): 101%
- remaining activity at 3.75 µM ([2]; Well no.=788, high concentration screen): 97.6%
- remaining activity at 3.75 µM ([2]; Well no.=8407, high concentration screen): 95.8%

Structure (SMILES): C#CCN1C(C)=C(C(=O)OC)C(c2cccc([N+](=O)[O-])c2)C(C(=O)OCC)=C1C (centres unmarked) [MRS 1845]
- remaining activity at 1.25 µM ([1]; Well no.=968, low concentration screen): 95.8%
- remaining activity at 3.75 µM ([2]; Well no.=968, high concentration screen): 96.5%

Structure (SMILES): Cc1nc(N=Nc2ccc(C(=O)O)cc2)c(COP(=O)(O)O)c(C=O)c1O [MRS 2159]
- remaining activity at 1.25 µM ([1]; Well no.=1030, low concentration screen): 102%
- remaining activity at 3.75 µM ([2]; Well no.=1030, high concentration screen): 101%

Structure (SMILES): CNc1ncnc2c1ncn2[C@H]1C[C@H](OP(=O)(O)O)[C@@H](COP(=O)(O)O)O1 [MRS 2179]
- remaining activity at 1.25 µM ([1]; Well no.=926, low concentration screen): 98.6%
- remaining activity at 3.75 µM ([2]; Well no.=926, high concentration screen): 103%

Structure (SMILES): S=C=Nc1cccc(NC(=S)NCCCCNC(=S)Nc2cccc(N=C=S)c2)c1 [MRS 2578]
- remaining activity at 1.25 µM ([1]; Well no.=4797, low concentration screen): 93.1%
- remaining activity at 1.25 µM ([1]; Well no.=7275, low concentration screen): 95%
- remaining activity at 3.75 µM ([2]; Well no.=7275, high concentration screen): 95.2%

Structure (SMILES): CCCn1c(=O)c2[nH]c(-c3ccc(OCC(=O)Nc4ccc(C(C)=O)cc4)cc3)nc2n(CCC)c1=O [MRS-1706]
- remaining activity at 1.25 µM ([1]; Well no.=8511, low concentration screen): 102%
- remaining activity at 3.75 µM ([2]; Well no.=8511, high concentration screen): 105%

Structure (SMILES): Cc1cc(/N=N/c2ccc(S(=O)(=O)Nc3ccccn3)cc2)c(N)cc1O [MS436]
- remaining activity at 1.25 µM ([1]; Well no.=7590, low concentration screen): 93.3%
- remaining activity at 3.75 µM ([2]; Well no.=7590, high concentration screen): 96.8%

Structure (SMILES): c1cnc(NCc2ccc(CNc3ncccn3)cc2)nc1 [MSX-122]
- remaining activity at 1.25 µM ([1]; Well no.=8075, low concentration screen): 97%
- remaining activity at 1.25 µM ([1]; Well no.=8397, low concentration screen): 89.1%
- remaining activity at 3.75 µM ([2]; Well no.=8075, high concentration screen): 84.8%
- remaining activity at 3.75 µM ([2]; Well no.=8397, high concentration screen): 90.4%

Structure (SMILES): Cc1nc(C#Cc2cccnc2)cs1 [MTEP (hydrochloride)]
- remaining activity at 1.25 µM ([1]; Well no.=7283, low concentration screen): 92.5%
- remaining activity at 3.75 µM ([2]; Well no.=7283, high concentration screen): 94.9%

Structure (SMILES): Cc1ccc(NS(=O)(=O)c2ccc3c(c2)C2C=CCC2C(c2ccc(C(=O)O)cc2)N3)cc1C (centres unmarked) [MX69]
- remaining activity at 1.25 µM ([1]; Well no.=6822, low concentration screen): 97.6%
- remaining activity at 1.25 µM ([1]; Well no.=7984, low concentration screen): 100%
- remaining activity at 3.75 µM ([2]; Well no.=6822, high concentration screen): 94.1%
- remaining activity at 3.75 µM ([2]; Well no.=7984, high concentration screen): 98.5%

Structure (SMILES): CCCNS(=O)(=O)Nc1ncnc(OCCOc2ncc(Br)cn2)c1-c1ccc(Br)cc1 [Macitentan]
- remaining activity at 1.25 µM ([1]; Well no.=4830, low concentration screen): 97.6%
- remaining activity at 1.25 µM ([1]; Well no.=8253, low concentration screen): 97.3%
- remaining activity at 3.75 µM ([2]; Well no.=4830, high concentration screen): 97.8%
- remaining activity at 3.75 µM ([2]; Well no.=8253, high concentration screen): 90.3%

Structure (SMILES): C[C@H]1[C@H](C)CC[C@]2(C(=O)O)CC[C@]3(C)C(=CC[C@@H]4[C@@]5(C)C[C@@H](O)[C@H](O)[C@@](C)(CO)[C@@H]5[C@H](O)C[C@]43C)[C@H]12 [Madecassic acid]
- remaining activity at 1.25 µM ([1]; Well no.=3657, low concentration screen): 104%
- remaining activity at 3.75 µM ([2]; Well no.=3657, high concentration screen): 104%

Structure (SMILES): C=CCc1ccc(O)c(-c2cc(CC=C)ccc2O)c1 [Magnolol]
- remaining activity at 1.25 µM ([1]; Well no.=3659, low concentration screen): 96.1%
- remaining activity at 3.75 µM ([2]; Well no.=3659, high concentration screen): 98.1%

Structure (SMILES): O=C(O)/C=C\C(=O)O [Maleic Acid]
- remaining activity at 1.25 µM ([1]; Well no.=6593, low concentration screen): 100%
- remaining activity at 3.75 µM ([2]; Well no.=6593, high concentration screen): 101%

Structure (SMILES): O=C(O)CC(O)C(=O)O (centres unmarked) [Malic acid]
- remaining activity at 1.25 µM ([1]; Well no.=6637, low concentration screen): 106%
- remaining activity at 3.75 µM ([2]; Well no.=6637, high concentration screen): 110%

Structure (SMILES): CC(C)OC(=O)C(C(=O)OC(C)C)=C1SC=CS1 [Malotilate]
- remaining activity at 1.25 µM ([1]; Well no.=8884, low concentration screen): 85.8%
- remaining activity at 3.75 µM ([2]; Well no.=8884, high concentration screen): 84.3%

Structure (SMILES): COC(=O)C1=C(C)NC(C)=C(C(=O)OCCN2CCN(C(c3ccccc3)c3ccccc3)CC2)C1c1cccc([N+](=O)[O-])c1 (centres unmarked) [Manidipine]
- remaining activity at 1.25 µM ([1]; Well no.=1788, low concentration screen): 104%
- remaining activity at 3.75 µM ([2]; Well no.=1788, high concentration screen): 99.9%

Structure (SMILES): C=C[C@](C)(O)CC[C@H]1C(=C)CC[C@H]2C(C)(C)CCC[C@]12C [Manool]
- remaining activity at 1.25 µM ([1]; Well no.=3389, low concentration screen): 95.7%
- remaining activity at 3.75 µM ([2]; Well no.=3389, high concentration screen): 98.7%

Structure (SMILES): CNCCC[C@]12CC[C@H](c3ccccc31)c1ccccc12 [Maprotiline hydrochloride]
- remaining activity at 1.25 µM ([1]; Well no.=845, low concentration screen): 103%
- remaining activity at 3.75 µM ([2]; Well no.=845, high concentration screen): 103%

Structure (SMILES): CNCCCC12CCC(c3ccccc31)c1ccccc12 [Maprotiline.HCl]
- remaining activity at 1.25 µM ([1]; Well no.=1787, low concentration screen): 95.1%
- remaining activity at 3.75 µM ([2]; Well no.=1787, high concentration screen): 96.8%

Structure (SMILES): Cc1nnc(C(C)C)n1[C@@H]1C[C@H]2CC[C@@H](C1)N2CC[C@H](NC(=O)C1CCC(F)(F)CC1)c1ccccc1 [Maraviroc]
- remaining activity at 1.25 µM ([1]; Well no.=4678, low concentration screen): 103%
- remaining activity at 1.25 µM ([1]; Well no.=8691, low concentration screen): 101%
- remaining activity at 3.75 µM ([2]; Well no.=4678, high concentration screen): 100%
- remaining activity at 3.75 µM ([2]; Well no.=8691, high concentration screen): 102%

Structure (SMILES): O=C(/C=C/c1ccc(O)c(O)c1)c1ccc(O[C@@H]2O[C@H](CO)[C@@H](O)[C@H](O)[C@H]2O)c(O)c1O [Marein]
- remaining activity at 1.25 µM ([1]; Well no.=3731, low concentration screen): 91.7%
- remaining activity at 3.75 µM ([2]; Well no.=3731, high concentration screen): 95.9%

Structure (SMILES): O=C1/C(=C/c2ccc(O)c(O)c2)Oc2c1ccc(O[C@@H]1O[C@H](CO)[C@@H](O)[C@H](O)[C@H]1O)c2O [Maritimein]
- remaining activity at 1.25 µM ([1]; Well no.=3339, low concentration screen): 91.1%
- remaining activity at 3.75 µM ([2]; Well no.=3339, high concentration screen): 97.6%

Structure (SMILES): O=C(c1ccccc1O)c1[nH]c(Cl)c(Cl)c1-n1c(C(=O)c2ccccc2O)cc(Cl)c1Cl [Maritoclax]
- remaining activity at 1.25 µM ([1]; Well no.=6588, low concentration screen): 101%
- remaining activity at 3.75 µM ([2]; Well no.=6588, high concentration screen): 99.2%

Structure (SMILES): O=C1CCC[C@@H]2[C@H]3CCCN4CCC[C@@H](CN12)[C@@H]34 [Matrine]
- remaining activity at 1.25 µM ([1]; Well no.=3661, low concentration screen): 101%
- remaining activity at 1.25 µM ([1]; Well no.=8341, low concentration screen): 100%
- remaining activity at 3.75 µM ([2]; Well no.=3661, high concentration screen): 103%
- remaining activity at 3.75 µM ([2]; Well no.=8341, high concentration screen): 94.7%

Structure (SMILES): NCCCCN(Cc1nc2ccccc2[nH]1)[C@H]1CCCc2cccnc21 [Mavorixafor (trihydrochloride)]
- remaining activity at 1.25 µM ([1]; Well no.=8167, low concentration screen): 109%
- remaining activity at 3.75 µM ([2]; Well no.=8167, high concentration screen): 103%
